Measured values: patent publication US20260174780A1, “BISMUTH-THIOL COMPOSITIONS AND METHODS FOR TREATING INFLAMMATORY DISEASES” (Microbion Corporation, priority 2022, published 2026)

Tests used:
[1] = Tolerability of inhaled BisEDT in the M. abscessus mouse study; type: in vivo, SCID/Beige mice; conditions: inhaled 200 and 1000 μg/kg/day, 28 days
Description: A nose-only inhalation exposure chamber from CH technologies was used for this experiment. Mice were split into four treatment groups, Vehicle (buffer containing no BisEDT), amikacin (100 μg/kg/day), BisEDT “low” (200 μg/kg/day), and BisEDT “high” (1000 μg/kg/day). Each treatment group consisted of 12 mice. Ten of these mice were used for CFU determination and two mice are used for histology/pathology/lung pharmacokinetics. Treatment was conducted 6 days a week over the course of 28 days total. To create the correct level of deposited dose of each drug tested, 10 mL of test article were made. Amikacin in HBSS at 20 mg/mL was made and stored at 4° C. until needed. BisEDT “high” at a concentration of 8 mg/mL was made once a week and stored at room temperature. BisEDT “low” was diluted from the 8 mg/mL to 1.6 mg/mL the day of treatment. Each treatment used an LC star reusable nebulizer from Pari. Animals were restrained and placed on the inhalation apparatus. The respiratory hose was connected to the inhalation apparatus and a compressor was connected to the nebulizer. The rate of air flow from the compressor to the nebulizer remained at 8.5 L/minute, which generated a nebulized fog that each mouse breathed in over 45 min.

A549 cells = assay: IL-10 expression (ELISA) in A549 cells; type: cell-based, human; conditions: 2 μg/mL and 4 μg/mL, 24 h, compared to untreated control
Description: A549 cells were differentiated with 50 ng/mL PMA for 24 hours, followed by 24 hours in media prior to infection. Cells were washed with media and treated with insoluble BisEDT or other antibiotics, and incubated for 24 h post treatment. Cell media was then removed and frozen at −80° C. Samples were briefly vortexed before conducting ELISA analysis for IL-10 expression (FIG. 1). BisEDT at a concentration of 2 μg/mL and 4 μg/mL increased the level of IL-10 expression level in A549 cells compared to untreated control.

Hypo-InflammaSkin models = assay: Ex vivo human skin model of psoriasis (Hypo-InflammaSkin), cytokine release in culture medium; type: cell-based; conditions: for secretion of IL-22: Day 7 (FIG. 13R); for secretion of MIP-3α: Day 7 (FIG. 13S)
Source text: Background: InflammaSkin® model is a validated psoriasis-like model developed to reproduce key features of pro-Th17/Th1 inflammation associated with psoriasis. It relies on the in situ activation of resident T-cell of normal skin biopsies and their further polarization into Th17/Th1 phenotype with the supplementation of culture medium with a cocktail of pro-inflammatory cytokines.
Model production and culture: 2 HypoSkin models of 15 mm in diameter (1.76 cm^2) were produced from 1 donor and cultured with 2 mL standard HypoSkin® medium. 20 Hypo-InflammaSkin models were produced from 1 donor by inducing in sit activation and Th17/Th1 polarization of skin resident T cells with proprietary cocktail and cultured with 2 mL Hypo-InflammaSkin® culture medium. The total treatable surface area of the models was 113 mm^2, and dosing of BisEDT took this into account based on dosing of the topical treatment. Models were maintained in standard cell culture conditions for the whole culture duration at 37° C., 5% CO2 and water saturation, with appropriate culture medium renewed every day.
Treatment Groups: Model Treatment: (1) HypoSkin® untreated control; (2) Hypo-InflammaSkin® untreated control; (3) topical betamethasone (positive control); (4) topical BisEDT—2.5 mg/mL (treatment applied every day from day 0 to 6; (5) topical BisEDT—1.25 mg/mL (treatment applied every day from day 3 to 6). N=3 per treatment group, except N=5 for Hypo-InflammaSkin® and N=1 for HypoSkin®.
Topical Treatment—Betamethasone (control): 25 μL of betamethasone was topically applied onto the surface of each skin model. Topical application was performed from Day 0 to Day 6 after removal of the previous treatment residues using a cotton swab.
Topical Treatment—BisEDT: 36 μL of the test compound was topically applied onto the surface of each skin model, massaging across the entire surface area for 1 minute, using a parafilm wrapped cotton swab; the compound was left on the skin. Topical application was performed from Day 0 to Day 6 (Treatment Group 4) or Day 3 to Day 6 (Treatment Group 5). A total of 9 models were topically treated.
Culture Media—culture media was collected on Day 3 prior to treatment application and on Day 7 and frozen at −80° C. A total of 42 culture media samples were collected.
IL-22 release: IL-22 release was measured in culture media using ELISA Human IL-22 Quantikine Kit (Bio-techne, ref D2200). Only samples from control conditions 1 to 3 were analyzed to assess donor's response to T cell activation. Each sample was analyzed in duplicate.
MSD Immunoassay—cytokine release (IL-2, IL-13, IL-15, IL-17A, IL-22, TNF-α, INF-γ, MIP-1β, and […]) in the culture medium was measured using the V-PLEX Plus Human Cytokine Kit (KI5089G, MesoScale Discovery) (FIGS. 13D-13S).

TGF-β = TGF-β expression in plasma of M. avium-infected mice; type: in vivo; conditions: 28 days treatment, low, med and high dose, compared to vehicle
Description: Protocol: M. avium infection was initiated in mice, and 3 weeks were allowed to pass to establish the infection. The animals were treated for 28 days and grouped according to dosage: vehicle, low dose pravibismane, med dose pravibismane, and high dose pravibismane. At the end of treatment, plasma samples were collected for analysis.

[2] = Earlier 28-day tolerability work in rats; conditions: 28 days
[3] = Day 3, compared to HypoInflammaSkin
[4] = Day 7, compared to untreated HypoInflammaSkin controls

C1C[S][Bi]([S]CC[S][Bi]2[S]CC[S]2)[S]1 [BisEDT, 1,2-(Bis(1,3-dithia-2-bismolane)thio)ethane]
body weight at the end of treatment [1]: within the normal weight range
tolerability [1]: well tolerated
IL-10 expression level (A549 cells): increased
MIP-1β levels vs betamethasone (Hypo-InflammaSkin models): lower than the steroid betamethasone
reducing/preventing inflammation induced in the HypoInflammaSkin models, vs betamethasone (Hypo-InflammaSkin models): more effective than betamethasone
secretion of IL-13 (Hypo-InflammaSkin models; [3]): reduced secretion
secretion of IL-15 (Hypo-InflammaSkin models; [3]): reduced secretion
secretion of IL-17A (Hypo-InflammaSkin models; [3]): reduced secretion
secretion of INF-γ (Hypo-InflammaSkin models; [3]): reduced secretion
secretion of MIP-110 (Hypo-InflammaSkin models; [3]): reduced secretion
secretion of TNF-α (Hypo-InflammaSkin models; [3]): reduced secretion
IL-17A secretion (Hypo-InflammaSkin models; Day 3 and Day 7 (FIGS. 13D, 13E), compared to untreated HypoInflammaSkin): notable reduction
TNF-α (Hypo-InflammaSkin models; Day 3 and Day 7 (FIGS. 13F, 13G), compared to untreated HypoInflammaSkin control): reduction
IFNγ secretion (Hypo-InflammaSkin models; Day 3 and Day 7 (FIGS. 13H, 13I), compared to untreated HypoInflammaSkin control): reduced
secretion of MIP-1β (Hypo-InflammaSkin models; Day 3 and Day 7 (FIGS. 13L, 13M), compared to untreated HypoInflammaSkin): statistically significant decrease
MIP-1β level (Hypo-InflammaSkin models; Day 7): two out of three replicates below LOQ
secretion of IL-22 (Hypo-InflammaSkin models; compared to untreated HypoInflammaSkin control, listed as Pravibismane): reduced secretion
secretion of IL-22 (Hypo-InflammaSkin models; compared to untreated HypoInflammaSkin control, listed as pravibismane): continued to decrease
secretion of MIP-3α (Hypo-InflammaSkin models; compared to untreated HypoInflammaSkin, listed as Pravibismane): statistically significant decrease
secretion of MIP-3α (Hypo-InflammaSkin models; compared to untreated HypoInflammaSkin, listed as pravibismane): continued to decrease
secretion of IFN-γ (Hypo-InflammaSkin models; [4]): continued to decrease
secretion of IL-13 (Hypo-InflammaSkin models; [4]): continued to decrease
secretion of IL-15 (Hypo-InflammaSkin models; [4]): continued to decrease
secretion of IL-17A (Hypo-InflammaSkin models; [4]): continued to decrease
secretion of MIP-1β (Hypo-InflammaSkin models; [4]): continued to decrease
secretion of TNF-α (Hypo-InflammaSkin models; [4]): continued to decrease
IL-15 secretion (Hypo-InflammaSkin models; pravibismane (day 3), compared to untreated HypoInflammaSkin): statistically significant reduction
IL-15 secretion vs HypoSkin untreated (Hypo-InflammaSkin models; pravibismane treatment (day 3)): even lower than healthy uninflamed skin
IL-17A levels vs positive control (betamethasone) (Hypo-InflammaSkin models; topical, started at day 0 or day 3): even lower than positive control
IL-13 secretion (Hypo-InflammaSkin models; treatment from day 0 (FIGS. 13N, 13O), compared to HypoInflammaSkin control): reduced
IFN-γ levels vs positive control (betamethasone) (Hypo-InflammaSkin models; treatment starting at Day 0): even lower than positive control
TNF-α levels vs positive control (betamethasone) (Hypo-InflammaSkin models; treatment starting at Day 0): even lower than positive control
expression of TGF-β (TGF-β): consistent reduction
dose highly tolerated without adverse effects [2]: 59 µg/kg/day
